The record followed here is patent US8232407B2, “Nitrogenous heterocyclic compounds with insecticidal activity, and the preparation and use thereof” (East China University of Science and Technology, priority 2008, dated 2012).

Common to all, as to assay type: in vivo
Holding throughout (settings): in vivo

One data set has as its system Aphis craccivoral. Nature of the data set: Insecticidal activities to aphids, immersion method. The method in brief:
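Wingless adult aphids feeding on bean sprouts were dipped 5 s in 500 ppm compound (DMF stock diluted in 0.2 mL/L aqueous Triton X-100), blotted and held at 23° C. Dead counted at 24 h, three replicates; mortality corrected against Triton-only controls.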

Another data set deals with Nilaparvata lugens. Nature of the data set: Insecticidal activities to plant hopper, spraying method. The method in brief:
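Nilaparvata lugens, 10 insects per tumbler, sprayed with 2 ml compound in acetone at 0.79-500 ppm, three replicates, aqueous acetone control. Dead insects counted after 24 h; mortality corrected against control survival.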

A further data set concerns Plutella xylostella. Nature of the data set: Insecticidal activities to diamondback moth, feeding dipped leaves. The method in brief: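 Leaf-dip feeding assay: fresh cabbage leaves dipped 3 s in test solution, air-dried and fed to Plutella xylostella, 10 insects per treatment, three replicates, water control. Deaths counted after 24 h; mortality corrected against survival in the control group.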

Data set [1] concerns Pseudaletia separate Walker. Nature of the data set: Insecticidal activities to armyworm, leaf dipping and feeding. The method in brief: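 Maize leaves dipped 3 s in acetone-formulated compound at 500 down to 1.57 ppm, dried and fed to armyworms, 10 insects per treatment in triplicate, aqueous acetone as control. Mortality was counted after 24 hours and corrected against control survival.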

Turning to `O=[N+]([O-])C(=Cc1cccs1)C1=NCCCN1Cc1ccc(Cl)nc1` [Compound 61], the “Aphis craccivoral Mortality (%) 500 ppm” value with Aphis craccivoral is 100%. For the same compound, in the data set with Nilaparvata lugens, the “Nilaparvata lugens Mortality (%) 500 ppm” value is reported as 100%. Also, the “Plutella xylostella Mortality (%) 500 ppm” value in the data set with Plutella xylostella is listed as 100%. For the same compound, the “Pseudaletia separate Walker Mortality (%) 500 ppm” value in data set [1] is 100%.

In the case of `CC(=C(C1=NCCN1Cc1ccc(Cl)nc1)[N+](=O)[O-])c1ccsc1` [Compound 116], the “Aphis craccivoral Mortality (%) 500 ppm” value in the data set on Aphis craccivoral worked out at 89%. The “Nilaparvata lugens Mortality (%) 500 ppm” value with Nilaparvata lugens is 94%. For the same compound, in the data set with Plutella xylostella, the “Plutella xylostella Mortality (%) 500 ppm” value is 64%. For the same compound, the “Pseudaletia separate Walker Mortality (%) 500 ppm” value in data set [1] was found to be 76%.

Regarding `O=[N+]([O-])C(=Cc1ccc(Cl)o1)C1=NCCN1Cc1cnc(Cl)s1` [Compound 71], the “Aphis craccivoral Mortality (%) 500 ppm” value in the data set on Aphis craccivoral amounted to 100%. Also, the “Nilaparvata lugens Mortality (%) 500 ppm” value in the data set with Nilaparvata lugens amounted to 100%. In addition, the “Plutella xylostella Mortality (%) 500 ppm” value in the data set on Plutella xylostella came to 100%. Further, the “Pseudaletia separate Walker Mortality (%) 500 ppm” value in data set [1] stood at 100%.

For the compound `O=[N+]([O-])C(=Cc1ccc(Br)o1)C1=NCCN1Cc1ccc(Cl)nc1` [Compound 5], in the data set on Aphis craccivoral, the “Aphis craccivoral Mortality (%) 500 ppm” value is reported as 100%. The “Nilaparvata lugens Mortality (%) 500 ppm” value in the data set with Nilaparvata lugens is 100%. For the same compound, the “Plutella xylostella Mortality (%) 500 ppm” value with Plutella xylostella worked out at 100%. For the same compound, the “Pseudaletia separate Walker Mortality (%) 500 ppm” value in data set [1] is 100%.

`O=[N+]([O-])C(=Cc1ccc(Cl)s1)C1=NCCN1Cc1cnc(Cl)s1` [Compound 86]: the “Aphis craccivoral Mortality (%) 500 ppm” value in the data set with Aphis craccivoral is on record as 100%. In the data set on Nilaparvata lugens, the “Nilaparvata lugens Mortality (%) 500 ppm” value is on record as 100%. In addition, the “Plutella xylostella Mortality (%) 500 ppm” value in the data set with Plutella xylostella was 100%. Moreover, the “Pseudaletia separate Walker Mortality (%) 500 ppm” value in data set [1] is 100%.

In the case of `O=[N+]([O-])C(=Cc1ccsc1)C1=NCCN1Cc1cnc(Cl)s1` [Compound 84], the “Aphis craccivoral Mortality (%) 500 ppm” value with Aphis craccivoral worked out at 100%. Further, the “Nilaparvata lugens Mortality (%) 500 ppm” value in the data set on Nilaparvata lugens stood at 100%. For the same compound, the “Plutella xylostella Mortality (%) 500 ppm” value in the data set on Plutella xylostella is 100%. Besides, the “Pseudaletia separate Walker Mortality (%) 500 ppm” value in data set [1] stood at 100%.

On to `O=[N+]([O-])C(=Cc1ccc(Cl)s1)C1=NCCN1Cc1ccc(Cl)nc1` [Compound 19], for which the “Aphis craccivoral Mortality (%) 500 ppm” value with Aphis craccivoral is reported as 100%. Moreover, the “Nilaparvata lugens Mortality (%) 500 ppm” value in the data set with Nilaparvata lugens was 100%. Moreover, the “Plutella xylostella Mortality (%) 500 ppm” value in the data set on Plutella xylostella is 100%. Moreover, the “Pseudaletia separate Walker Mortality (%) 500 ppm” value in data set [1] is listed as 100%.

With `O=[N+]([O-])C(=Cc1ccc([N+](=O)[O-])s1)C1=NCCN1Cc1cnc(Cl)s1` [Compound 85], in the data set on Aphis craccivoral, the “Aphis craccivoral Mortality (%) 500 ppm” value is given as 100%. In addition, the “Nilaparvata lugens Mortality (%) 500 ppm” value in the data set with Nilaparvata lugens stood at 100%. In addition, in the data set on Plutella xylostella, the “Plutella xylostella Mortality (%) 500 ppm” value is 100%. The “Pseudaletia separate Walker Mortality (%) 500 ppm” value in data set [1] came to 100%.

For the compound `Cn1cccc1C=C(C1=NCCN1Cc1ccc(Cl)nc1)[N+](=O)[O-]` [Compound 32], the “Aphis craccivoral Mortality (%) 500 ppm” value in the data set with Aphis craccivoral is on record as 100%. In addition, the “Nilaparvata lugens Mortality (%) 500 ppm” value with Nilaparvata lugens was 100%. Besides, the “Plutella xylostella Mortality (%) 500 ppm” value in the data set on Plutella xylostella is 100%. Moreover, in data set [1], the “Pseudaletia separate Walker Mortality (%) 500 ppm” value amounted to 100%.

For `O=[N+]([O-])C(=Cc1cnco1)C1=NCCN1Cc1ccc(Cl)nc1` [Compound 33], the “Aphis craccivoral Mortality (%) 500 ppm” value with Aphis craccivoral turned out to be 100%. In addition, the “Nilaparvata lugens Mortality (%) 500 ppm” value in the data set with Nilaparvata lugens worked out at 100%. Besides, in the data set on Plutella xylostella, the “Plutella xylostella Mortality (%) 500 ppm” value is 100%. In addition, in data set [1], the “Pseudaletia separate Walker Mortality (%) 500 ppm” value came out at 100%.

Turning to `CC(=C(C1=NCCN1C(C)c1ccc(Cl)nc1)[N+](=O)[O-])c1cccs1` (racemic) [Compound 138], in the data set on Aphis craccivoral, the “Aphis craccivoral Mortality (%) 500 ppm” value was determined as 100%. Moreover, in the data set on Nilaparvata lugens, the “Nilaparvata lugens Mortality (%) 500 ppm” value is listed as 100%. Besides, in the data set on Plutella xylostella, the “Plutella xylostella Mortality (%) 500 ppm” value was determined as 100%. In addition, in data set [1], the “Pseudaletia separate Walker Mortality (%) 500 ppm” value was 100%.

Regarding `C[N+]1=C(C(=Cc2cc(Br)co2)[N+](=O)[O-])N(Cc2ccc(Cl)nc2)CC1.[Cl-]` [Compound 250], the “Aphis craccivoral Mortality (%) 500 ppm” value in the data set on Aphis craccivoral amounted to 100%. For the same compound, the “Nilaparvata lugens Mortality (%) 500 ppm” value with Nilaparvata lugens was 100%. Further, the “Plutella xylostella Mortality (%) 500 ppm” value in the data set with Plutella xylostella turned out to be 100%. In addition, in data set [1], the “Pseudaletia separate Walker Mortality (%) 500 ppm” value worked out at 100%.
